{"source": "patent US20120141611A1", "about": "“METHODS AND COMPOSITIONS USING ERGOTHIONEINE TO TREAT A VARIETY OF HEALTH RELATED FACTORS” (Oxis International Inc., priority 2010, published 2012)", "origin": "cited, not measured here", "key": {"[1]": {"conditions": "Rat, cited from earlier work"}, "[2]": {"conditions": "Dog, cited from earlier work"}, "[3]": {"conditions": "cited from earlier work"}, "[4]": {"conditions": "cited from earlier work", "remark": "listed apart in the source"}, "[5]": {"conditions": "cited from earlier work", "remark": "listed apart in the source"}, "[6]": {"conditions": "rat; cited from earlier work"}, "[7]": {"conditions": "into the organs, principally the liver; cited from earlier work"}, "erythrocyte membrane": {"tested_on": "erythrocyte membrane", "conditions": "cited from earlier work"}, "[8]": {"conditions": "cited from earlier work", "remark": "listed apart in the source"}, "[9]": {"conditions": "physiologic pH, does not auto-oxidize; cited from earlier work"}, "Mn-superoxide dismutase": {"molecular_target": "T1, Mn-superoxide dismutase (Mus musculus, UniProt P09671)", "T1 sequence (P09671 25-222)": "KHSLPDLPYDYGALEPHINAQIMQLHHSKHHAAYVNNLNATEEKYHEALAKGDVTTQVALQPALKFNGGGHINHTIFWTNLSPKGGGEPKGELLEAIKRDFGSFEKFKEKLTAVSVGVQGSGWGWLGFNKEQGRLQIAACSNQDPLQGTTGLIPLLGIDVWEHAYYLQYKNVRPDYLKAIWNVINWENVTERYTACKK", "conditions": "12.5 mM; cited from earlier work"}, "Cu/Zn SOD": {"molecular_target": "Cu/Zn SOD (Mus musculus, UniProt P08228)", "sequence (P08228 whole entry)": "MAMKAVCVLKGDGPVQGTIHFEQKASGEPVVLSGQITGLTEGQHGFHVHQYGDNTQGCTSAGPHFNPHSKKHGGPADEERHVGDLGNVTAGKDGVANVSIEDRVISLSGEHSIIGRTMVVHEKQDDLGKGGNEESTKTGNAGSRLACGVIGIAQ", "conditions": "12.5 mM; cited from earlier work"}, "glutathione reductase": {"molecular_target": "T2, glutathione reductase (Mus musculus, UniProt P47791)", "T2 construct": "glutathione peroxidase and glutathione reductase activities in mouse liver cytosol fractions; from tissue; host or cells: mouse liver cytosol fractions (result quoted from the literature)", "T2 sequence (P47791 27-500)": "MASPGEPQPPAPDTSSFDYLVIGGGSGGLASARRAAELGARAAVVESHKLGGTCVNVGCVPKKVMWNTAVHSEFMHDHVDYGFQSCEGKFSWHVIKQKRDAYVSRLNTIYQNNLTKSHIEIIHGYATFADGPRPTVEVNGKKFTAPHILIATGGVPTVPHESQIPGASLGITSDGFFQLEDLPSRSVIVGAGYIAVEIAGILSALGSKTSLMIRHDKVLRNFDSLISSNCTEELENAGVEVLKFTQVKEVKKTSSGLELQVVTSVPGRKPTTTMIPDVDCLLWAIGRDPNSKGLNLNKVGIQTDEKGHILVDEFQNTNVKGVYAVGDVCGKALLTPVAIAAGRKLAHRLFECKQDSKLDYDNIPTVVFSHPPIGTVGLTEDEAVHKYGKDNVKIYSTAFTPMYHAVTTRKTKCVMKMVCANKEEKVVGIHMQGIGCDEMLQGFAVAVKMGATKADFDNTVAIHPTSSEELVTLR", "conditions": "mouse liver cytosol fractions; cited from earlier work"}, "hepatic microsomes": {"tested_on": "hepatic microsomes", "conditions": "NADPH or ascorbic acid challenge; cited from earlier work"}, "isolated rat heart": {"tested_on": "isolated rat heart", "conditions": "0.1 mM; cited from earlier work"}, "isolated rabbit heart": {"tested_on": "isolated rabbit heart", "conditions": "cited from earlier work"}, "human platelets": {"tested_on": "human platelets", "conditions": "human platelets in vitro; cited from earlier work"}, "[10]": {"conditions": "rats, 8 mg/100 gm body weight for 7 days pre-administration; cited from earlier work"}, "spermatozoa": {"tested_on": "spermatozoa", "conditions": "cited from earlier work"}, "A549 cells": {"tested_on": "A549 cells", "conditions": "cited from earlier work"}, "rat retina": {"tested_on": "rat retina", "conditions": "NMDA, cited from earlier work"}, "human red cell cells": {"tested_on": "human red cell cells", "conditions": "1 mM, intact human red cells in vitro; cited from earlier work"}, "[11]": {"conditions": "animal experimental model of diabetes; cited from earlier work"}, "[12]": {"conditions": "ergothioneine ingestion or administration, humans or animals; cited from earlier work"}, "[13]": {"conditions": "cited from earlier work", "remark": "listed apart in the source"}, "[14]": {"conditions": "<1 nmol/gm liver versus dietary-augmented animals 1400 nmol/gm liver; cited from earlier work"}}, "note": "Several values for one entry are separate records, joined by “and”; a condition that tells them apart may be missing. Identical values can stand only once. Entries after “also recorded” stand apart in the source; their conditions may differ. Like-named read-outs stand apart in the source and are kept apart here.", "data": [{"smiles": "C[N+](C)(C)[C@@H](Cc1c[nH]c(=S)[nH]1)C(=O)[O-]", "note": "[Ergothioneine, ergothioneine]", "values": [{"measurement": "Concentration of LE in tissue", "setting": "[1]; Heart", "result": 1.5, "unit": "mgs/100 gm fresh tissue"}, {"measurement": "Concentration of LE in tissue", "setting": "[1]; Intestine", "result": 0.6, "unit": "mgs/100 gm fresh tissue"}, {"measurement": "Concentration of LE in tissue", "setting": "[1]; Kidney", "result": 4.3, "unit": "mgs/100 gm fresh tissue"}, {"measurement": "Concentration of LE in tissue", "setting": "[1]; Liver", "result": 13.3, "unit": "mgs/100 gm fresh tissue"}, {"measurement": "Concentration of LE in tissue", "setting": "[1]; Lungs", "result": 1.5, "unit": "mgs/100 gm fresh tissue"}, {"measurement": "Concentration of LE in tissue", "setting": "[1]; Muscle", "result": 0.7, "unit": "mgs/100 gm fresh tissue"}, {"measurement": "Concentration of LE in tissue", "setting": "[1]; Plasma", "result": 0.0, "unit": "mgs/100 gm fresh tissue"}, {"measurement": "Concentration of LE in tissue", "setting": "[1]; RBC", "result": 10.4, "unit": "mgs/100 gm fresh tissue"}, {"measurement": "Concentration of LE in tissue", "setting": "[1]; Spleen", "result": 1.1, "unit": "mgs/100 gm fresh tissue"}, {"measurement": "Concentration of LE in tissue", "setting": "[1]; Stomach", "result": 0.4, "unit": "mgs/100 gm fresh tissue"}, {"measurement": "Concentration of LE in tissue", "setting": "[1]; Testes", "result": 0.0, "unit": "mgs/100 gm fresh tissue"}, {"measurement": "Concentration of l-ergothioneine in the blood", "setting": "[1]", "result": "1-6 mg/100 ml blood"}, {"measurement": "Concentration of LE in tissue", "setting": "[2]; Heart", "result": 8.9, "unit": "mgs/100 gm fresh tissue"}, {"measurement": "Concentration of LE in tissue", "setting": "[2]; Kidney", "result": 1.6, "unit": "mgs/100 gm fresh tissue"}, {"measurement": "Concentration of LE in tissue", "setting": "[2]; Liver", "result": 0.9, "unit": "mgs/100 gm fresh tissue"}, {"measurement": "Concentration of LE in tissue", "setting": "[2]; Lungs", "result": 0.6, "unit": "mgs/100 gm fresh tissue"}, {"measurement": "Concentration of LE in tissue", "setting": "[2]; RBC", "result": 6.6, "unit": "mgs/100 gm fresh tissue"}, {"measurement": "Concentration of LE in tissue", "setting": "[2]; Spleen", "result": 1.1, "unit": "mgs/100 gm fresh tissue"}, {"measurement": "Concentration of LE in tissue", "setting": "[2]; Testes", "result": 0.0, "unit": "mgs/100 gm fresh tissue"}, {"measurement": "Concentration of l-ergothioneine in the blood", "setting": "[2]", "result": "3-6 mg/100 ml blood"}, {"measurement": "Concentration of LE in tissue", "setting": "[3]; Cat, Heart", "result": 0.0, "unit": "mgs/100 gm fresh tissue"}, {"measurement": "Concentration of LE in tissue", "setting": "[3]; Cat, Kidney", "result": 3.1, "unit": "mgs/100 gm fresh tissue"}, {"measurement": "Concentration of LE in tissue", "setting": "[3]; Cat, Liver", "result": 2.7, "unit": "mgs/100 gm fresh tissue"}, {"measurement": "Concentration of LE in tissue", "setting": "[3]; Cat, Lungs", "result": 0.8, "unit": "mgs/100 gm fresh tissue"}, {"measurement": "Concentration of LE in tissue", "setting": "[3]; Cat, RBC", "result": 2.9, "unit": "mgs/100 gm fresh tissue"}, {"measurement": "Concentration of LE in tissue", "setting": "[3]; Cat, Testes", "result": 0.0, "unit": "mgs/100 gm fresh tissue"}, {"measurement": "Concentration of l-ergothioneine in the blood", "setting": "[3]; Cat", "result": "0.5-2 mg/100 ml blood"}, {"measurement": "Ergothioneine in brain", "setting": "[3]; brains of cats", "result": 3.0, "unit": "µg/g"}, {"measurement": "Concentration of l-ergothioneine in the blood", "setting": "[4]; Man", "result": "1-4 mg/100 ml blood"}, {"measurement": "Levels in human blood cells", "setting": "[4]; healthy males from Saudi Arabia", "result": "1-4 mg/100 mL"}, {"measurement": "Concentration of l-ergothioneine in the blood", "setting": "[5]; G. Pig", "result": "1-4 mg/100 ml blood"}, {"measurement": "Ergothioneine in brain", "setting": "[5]; brains of guinea-pigs", "result": 10, "unit": "µg/g"}, {"measurement": "Whole body half-life", "setting": "[6]", "result": "approximately 30 days"}, {"measurement": "Disappearance from the plasma after intravenous administration", "setting": "[7]", "result": "rapid disappearance"}, {"measurement": "Amount directly penetrating the erythrocyte membrane", "setting": "erythrocyte membrane", "result": "< 1", "unit": "%"}, {"measurement": "Sulfur label recovered in the urine as free sulfate", "setting": "[8]; 35S-ergothioneine", "result": "35-65%"}, {"measurement": "Dose recovered by urinary excretion", "setting": "[8]; bolus injected, in approximately 6 hours", "result": 60, "unit": "%"}, {"measurement": "Share of urine products identified as ergothioneine", "setting": "[8]; bolus injected", "result": "About one-third"}, {"measurement": "Share of urine products identified as hercynine", "setting": "[8]; bolus injected", "result": "About one-third"}, {"measurement": "Stability in aqueous solution", "setting": "[9]", "result": "very stable in aqueous solution"}, {"measurement": "Mitochondrial Mn-superoxide dismutase activity", "setting": "Mn-superoxide dismutase", "result": "nearly doubled"}, {"measurement": "Cytosolic Cu/Zn SOD activity", "setting": "Cu/Zn SOD", "result": "no increased activity"}, {"measurement": "Glutathione reductase activity", "setting": "glutathione reductase", "result": "markedly increased"}, {"measurement": "NADPH-dependent enzymatic lipid peroxidation", "setting": "hepatic microsomes", "result": "inhibits"}, {"measurement": "Protection against reperfusion injury as measured by LDH release", "setting": "isolated rat heart", "result": "protected the isolated rat heart against reperfusion injury"}, {"measurement": "Protection against ischemia-reperfusion injury", "setting": "isolated rabbit heart", "result": "failed to protect"}, {"measurement": "CO2 production from pyruvate", "setting": "human platelets", "result": "increases in CO2 production from pyruvate"}, {"measurement": "Production of lactate", "setting": "human platelets", "result": "decreased production of lactate"}, {"measurement": "Hepatic injury after a single injection of ethionine", "setting": "[10]", "result": "inhibited"}, {"measurement": "Hepatic lipid peroxide formation", "setting": "[10]", "result": "reduced"}, {"measurement": "Effect on spermatozoa viability and survival under hydrogen peroxide", "setting": "spermatozoa", "result": "counteracts the effects of hydrogen peroxide on spermatozoa viability and survival"}, {"measurement": "H2O2 and TNF-alpha imposed oxidative stress in IL-8-CAT reporter system", "setting": "A549 cells", "result": "inhibits"}, {"measurement": "Loss of nonganglion cells", "setting": "rat retina; rats treated with ergothioneine (43% without)", "result": 31, "unit": "%"}, {"measurement": "Loss of ganglion cells", "setting": "rat retina; rats treated with ergothioneine (81% without)", "result": 44, "unit": "%"}, {"measurement": "Ameloid Precursor Protein (APP)", "setting": "rat retina", "result": "significant decreases"}, {"measurement": "Glycolytic activity", "setting": "human red cell cells", "result": "significant increase in glycolytic activity"}, {"measurement": "Developmental defects of embryos", "setting": "[11]", "result": "reverse the developmental defects to almost that of the control group"}, {"measurement": "Deleterious / negative side effects", "setting": "[12]", "result": "No documented negative side effects; also recorded: no deleterious effects"}, {"measurement": "Concentration of LE in the lens of the human eye", "setting": "[13]; Hypermature cataract", "result": "60.8 mg LE/100 gm and 60.8 +/− 9.8 mg LE/100 gm"}, {"measurement": "Concentration of LE in the lens of the human eye", "setting": "[13]; Immature cortical cataract", "result": "79.6 mg LE/100 gm and 79.4 +/− 11.7 mg LE/100 gm"}, {"measurement": "Concentration of LE in the lens of the human eye", "setting": "[13]; Immature nuclear cataract", "result": "94.2 mg LE/100 gm and 94.2 +/− 7.3 mg LE/100 gm"}, {"measurement": "Concentration of LE in the lens of the human eye", "setting": "[13]; Mature cataract", "result": "71.7 mg LE/100 gm and 71.7 +/− 13.7 mg LE/100 gm"}, {"measurement": "Concentration of LE in the lens of the human eye", "setting": "[13]; Normal lens", "result": "115.7 mg LE/100 gm and 115.7 +/− 6.3 mg LE/100 gm"}, {"measurement": "Increase in hepatic lipid peroxidation in partially LE-deficient rats", "setting": "[14]", "result": 40, "unit": "%"}]}]}
